Where two headings read alike, the source gives them in different places.

Data set [1] concerns Lactobacillus plantarum PN0512. The data set is described as follows: Growth of L. plantarum PN0512 in the presence of butanols at different temperatures (OD600 for six hours). In kind it is cell-based. Also noted: key to Growth in the presence of 1-butanol / Growth in the presence of isobutanol / Growth in the presence of 2-butanol: “+” = growth observed as an increase in OD600.; “−” = no growth observed, i.e. no change in OD600.

In another data set the test system is E. coli strain BW25113. The data set is described as follows: Survival of E. coli after 30 min MEK shock (colony counts). Type of data set: cell-based, Escherichia coli. To be noted: for % Survival at 28° C. / % Survival at 37° C.: average of duplicate experiments.
For a further data set, the system named is acetoacetyl-CoA thiolase. Put plainly: Acetoacetyl-CoA thiolase activity in cell free extracts (absorbance 303 nm). To be noted: cell free extract of arabinose-induced E. coli BL21-AI culture, one typical assay.
Data set [2] has as its target 3-hydroxybutyryl-CoA dehydrogenase (Clostridium acetobutylicum, UniProt P52041). Put plainly: Hydroxybutyryl-CoA dehydrogenase activity (NADH oxidation, 340 nm). To be noted: induced E. coli BL21-AI culture, one typical assay.
Data set [3] has as its system Saccharomyces cerevisiae BY4741. The conditions noted are these: for % Growth Inhibition: six hours. As to the method:
Tolerance levels were determined for yeast strain Saccharomyces cerevisiae BY4741 (described in Example 21) at 25° C. and 30° C. as follows. The strain was cultured in YPD medium. Overnight cultures in the absence of any test compound were started in 25 mL of YPD medium in 150 mL flasks with incubation at 30° C. or at 25° C. in shaking water baths. The next morning, each overnight culture was diluted into a 500 mL flask-containing 300 mL of fresh medium to an initial OD600 of about 0.1. The flasks were incubated in shaking water baths at 30° C. or 25° C., using the same temperature as used for each overnight culture. […] The ΔOD600 was calculated by subtracting the initial OD600 from the final OD600 at 6 hours. The percent growth inhibition relative to the control culture was calculated as follows: % Growth Inhibition=100−[100(Sample ΔOD600/Control ΔOD600)].

For a further data set, the system named is butanol dehydrogenase. Put plainly: Butanol dehydrogenase activity (NADH oxidation, 340 nm). Type of data set: biochemical, Clostridium acetobutylicum. The conditions noted are these: induced E. coli BL21-AI culture, one typical assay.

3-hydroxybutyryl-CoA dehydrogenase, sequence (P52041 whole entry): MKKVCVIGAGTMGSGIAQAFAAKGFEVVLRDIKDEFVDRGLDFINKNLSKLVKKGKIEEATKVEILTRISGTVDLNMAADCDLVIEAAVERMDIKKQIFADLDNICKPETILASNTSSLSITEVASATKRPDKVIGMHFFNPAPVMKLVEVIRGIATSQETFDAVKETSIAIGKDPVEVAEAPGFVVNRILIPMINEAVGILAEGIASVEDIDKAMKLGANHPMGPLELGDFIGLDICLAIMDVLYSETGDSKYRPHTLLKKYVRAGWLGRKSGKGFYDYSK

As for `CC(C)CO` [isobutanol], in data set [1] (3.3 % w/v, 30° C.), the “Growth in the presence of isobutanol” value is on record as “−”.
`CCC(C)=O` [MEK, 2-butanone]: the “% Survival at 28° C.” value in the data set on E. coli strain BW25113 (MEK 4 % w/v) worked out at 100%; in the data set with E. coli strain BW25113 (MEK 6 % w/v), 100%; in the data set on E. coli strain BW25113 (MEK 8 % w/v) it was 0.002%. The results for the “% Survival at 37° C.” value with E. coli strain BW25113 (MEK 4 % w/v), in the data set with E. coli strain BW25113 (MEK 6 % w/v) and in the data set with E. coli strain BW25113 (MEK 8 % w/v) were 100%, 0% and 0%, respectively. Moreover, the “concentration with full survival” value was determined as 6 % w/v with E. coli strain BW25113 (exposure at 28° C.) and 4 % w/v in the data set on E. coli strain BW25113 (exposure at 37° C.). In the data set on E. coli strain BW25113 (exposure at 37° C.), the “concentration with no survival” value amounted to 6 % w/v.
“ThIA protein: acetoacetyl-CoA thiolase (SEQ ID NO:2) from C. acetobutylicum ATCC 824 expressed in E. coli”: the “specific activity (acetoacetyl-CoA thiolase)” value with acetoacetyl-CoA thiolase was found to be 16.0 µmol/mg/min.
“BHBD protein: 3-hydroxybutyryl-CoA dehydrogenase (SEQ ID NO:6) from C. acetobutylicum ATCC 824 expressed in E. coli”: the “specific activity (hydroxybutyryl-CoA dehydrogenase)” value in data set [2] came out at 57.4 µmol/mg/min.
Turning to 1-butanol, the “Growth in the presence of 1-butanol” value in data set [1] (1.0 % w/v, 37° C.) is “+”; in data set [1] (1.2 % w/v, 37° C.), “+”; in data set [1] (1.4 % w/v, 37° C.), “+”; in data set [1] (1.5 % w/v, 25° C.) it was “+”; in data set [1] (1.5 % w/v, 30° C.) it was “+”; in data set [1] (1.5 % w/v, 37° C.), “+”. The “Growth in the presence of 1-butanol” value in data set [1] (1.6 % w/v, 37° C.) is “+”; in data set [1] (1.8 % w/v, 37° C.), “+”; in data set [1] (2.0 % w/v, 25° C.), “+”; in data set [1] (2.0 % w/v, 30° C.), “+”; in data set [1] (2.0 % w/v, 37° C.) it was “+”; in data set [1] (2.1 % w/v, 37° C.) it was “+”. Further, the “Growth in the presence of 1-butanol” value in data set [1] (2.2 % w/v, 37° C.) is reported as “+”; in data set [1] (2.3 % w/v, 37° C.), “+”; in data set [1] (2.4 % w/v, 25° C.), “+”; in data set [1] (2.4 % w/v, 30° C.) it was “+”; in data set [1] (2.4 % w/v, 37° C.), “−”; in data set [1] (2.7 % w/v, 30° C.) it was “+”. Besides, the “Growth in the presence of 1-butanol” value in data set [1] (2.7 % w/v, 37° C.) was “−”; in data set [1] (2.9 % w/v, 25° C.) it was “+”; in data set [1] (2.9 % w/v, 30° C.), “−”; in data set [1] (2.9 % w/v, 37° C.) it was “−”; in data set [1] (3.1 % w/v, 25° C.), “+”; in data set [1] (3.1 % w/v, 30° C.) it was “−”. The “Growth in the presence of 1-butanol” value in data set [1] (3.1 % w/v, 37° C.) is given as “−”; in data set [1] (3.2 % w/v, 25° C.), “−”; in data set [1] (3.2 % w/v, 30° C.), “−”; in data set [1] (3.3 % w/v, 25° C.), “−”; in data set [1] (3.4 % w/v, 25° C.), “−”; in data set [1] (3.4 % w/v, 30° C.), “−”. Further, in data set [1] ([…] w/v, 37° C.), the “Growth in the presence of 1-butanol” value is recorded as “−”. The “concentration in which growth was observed” value amounted to 3.1% in data set [1] (25° C.), 2.7% in data set [1] (30° C.) and 2.3% in data set [1] (37° C.). The “concentration in which growth was not observed” value in data set [1] (30° C.) was 2.9%; in data set [1] (37° C.), 2.4%. Also, the “growth inhibition of strain BY4741 at 25° C. compared with 30° C.” value in data set [3] (1% 1-butanol) is “less inhibited”. Moreover, the “% Growth Inhibition” value in data set [3] (1% 1-butanol, 25° C.) is 43%; in data set [3] (1% 1-butanol, 30° C.), 64%; in data set [3] (2% 1-butanol, 25° C.), “No growth”; in data set [3] (2% 1-butanol, 30° C.), “No growth”.
Consider `CCC(C)O` (stereo not shown) [2-butanol], for which the “Growth in the presence of 2-butanol” value in data set [1] (1.8 % w/v, 37° C.) is “+”; in data set [1] (2.1 % w/v, 37° C.), “+”; in data set [1] (2.9 % w/v, 25° C.), “+”; in data set [1] (2.9 % w/v, 30° C.), “+”; in data set [1] (2.9 % w/v, 37° C.), “+”; in data set [1] (3.1 % w/v, 37° C.), “+”. Also, the “Growth in the presence of 2-butanol” value was “+” in data set [1] (3.6 % w/v, 37° C.); “+” in data set [1] (3.8 % w/v, 25° C.); “+” in data set [1] (3.8 % w/v, 30° C.); “+” in data set [1] (3.8 % w/v, 37° C.); “+” in data set [1] (4.0 % w/v, 30° C.); “+” in data set [1] (4.3 % w/v, 25° C.). The “Growth in the presence of 2-butanol” value in data set [1] (4.3 % w/v, 30° C.) is reported as “+”; in data set [1] (4.3 % w/v, 37° C.) it was “+”; in data set [1] (4.7 % w/v, 25° C.), “+”; in data set [1] (4.7 % w/v, 30° C.), “+”; in data set [1] (4.7 % w/v, 37° C.), “−”; in data set [1] (4.9 % w/v, 25° C.), “+”. Moreover, the “Growth in the presence of 2-butanol” value is on record as “−” in data set [1] (4.9 % w/v, 30° C.); “+” in data set [1] (5.2 % w/v, 25° C.); “−” in data set [1] (5.2 % w/v, 37° C.); “−” in data set [1] (5.6 % w/v, 25° C.); “−” in data set [1] (5.6 % w/v, 37° C.); “−” in data set [1] (6.0 % w/v, 37° C.). For the same molecule, the “Growth in the presence of 2-butanol” value in data set [1] (6.4 % w/v, 37° C.) is listed as “−”; in data set [1] (7.3 % w/v, 37° C.), “−”; in data set [1] ([…] w/v, 30° C.) it was “+”. In addition, the “concentration in which growth was observed” value in data set [1] (25° C.) is on record as 5.2%; in data set [1] (30° C.), 4.7%; in data set [1] (37° C.), 4.3%. In addition, the “concentration in which growth was not observed” value in data set [1] (30° C.) came out at 4.9%; in data set [1] (37° C.), 4.5%.
As for “ThIB protein: acetoacetyl-CoA thiolase (SEQ ID NO:4) from C. acetobutylicum ATCC 824 expressed in E. coli”, the “specific activity (acetoacetyl-CoA thiolase)” value in the data set on acetoacetyl-CoA thiolase was 14.9 µmol/mg/min.

B1: BdhB protein: butanol dehydrogenase (SEQ ID NO:14) from C. acetobutylicum ATCC 824 expressed in E. coli (protein, listed as Clostridium acetobutylicum)
chain: MVDFEYSIPTRIFFGKDKINVLGRELKKYGSKVLIVYGGGSIKRNGIYDKAVSILEKNSIKFYELAGVEPNPRVTTVEKGVKICRENGVEVVLAIGGGSAIDCAKVIAAACEYDGNPWDIVLDGSKIKRVLPIASILTIAATGSEMDTWAVINNMDTNEKLIAAHPDMAPKFSILDPTYTYTVPTNQTAAGTADIMSHIFEVYFSNTKTAYLQDRMAEALLRTCIKYGGIALEKPDDYEARANLMWASSLAINGLLTYGKDTNWSVHLMEHELSAYYDITHGVGLAILTPNWMEYILNNDTVYKFVEYGVNVWGIDKEKNHYDIAHQAIQKTRDYFVNVLGLPSRLRDVGIEEEKLDIMAKESVKLTGGTIGNLRPVNASEVLQIFKKSV
On to B1, for which the “specific activity (butanol dehydrogenase)” value in the data set on butanol dehydrogenase is 0.169 µmol/mg/min.

B2: BdhA protein: butanol dehydrogenase (SEQ ID NO:16) from C. acetobutylicum 824 expressed in E. coli (protein, listed as Clostridium acetobutylicum)
chain: MLSFDYSIPTKVFFGKGKIDVIGEEIKKYGSRVLIVYGGGSIKRNGIYDRATAILKENNIAFYELSGVEPNPRITTVKKGIEICRENNVDLVLAIGGGSAIDCSKVIAAGVYYDGDTWDMVKDPSKITKVLPIASILTLSATGSEMDQIAVISNMETNEKLGVGHDDMRPKFSVLDPTYTFTVPKNQTAAGTADIMSHTFESYFSGVEGAYVQDGIAEAILRTCIKYGKIAMEKTDDYEARANLMWASSLAINGLLSLGKDRKWSCHPMEHELSAYYDITHGVGLAILTPNWMEYILNDDTLHKFVSYGINVWGIDKNKDNYEIAREAIKNTREYFNSLGIPSKLREVGIGKDKLELMAKQAVRNSGGTIGSLRPINAEDVLEIFKKSY
As for B2, the “specific activity (butanol dehydrogenase)” value in the data set with butanol dehydrogenase was 0.102 µmol/mg/min.
